Values quoted from earlier work as cited in patent publication US20090156457A1, “METHODS AND MEANS FOR SCREENING FOR RHOMBOID ACTIVITY” (MEDICAL RESEARCH COUNCIL, priority 2004, published 2009).

Test system: Rhomboid

SMILES | Rhomboid activity
O=c1oc(Cl)c(Cl)c2ccccc12 [3,4-DCI] | inhibit Rhomboid activity
Cc1ccc(S(=O)(=O)N[C@@H](Cc2ccccc2)C(=O)CCl)cc1 [TPCK] | inhibit Rhomboid activity
